Laboratory results taken from patent US20240279202A1 (NURIX THERAPEUTICS, INC., priority 2021, published 2024).

Key:
ITK [1] = target: T1, ITK (Mus musculus, UniProt Q03526); assay: Mouse PD assay for ITK degradation (Western blot, splenocytes after oral administration); assay type: in vivo; conditions: percent ITK remaining in mouse splenocytes relative to vehicle, 90 mpk PO, 6 h
T1 construct: mice were sacrificed and splenocytes were isolated and used to prepare protein lysates; from tissue; host or cells: mouse splenocytes (spleen) after oral dosing
T1 sequence (Q03526 1-625): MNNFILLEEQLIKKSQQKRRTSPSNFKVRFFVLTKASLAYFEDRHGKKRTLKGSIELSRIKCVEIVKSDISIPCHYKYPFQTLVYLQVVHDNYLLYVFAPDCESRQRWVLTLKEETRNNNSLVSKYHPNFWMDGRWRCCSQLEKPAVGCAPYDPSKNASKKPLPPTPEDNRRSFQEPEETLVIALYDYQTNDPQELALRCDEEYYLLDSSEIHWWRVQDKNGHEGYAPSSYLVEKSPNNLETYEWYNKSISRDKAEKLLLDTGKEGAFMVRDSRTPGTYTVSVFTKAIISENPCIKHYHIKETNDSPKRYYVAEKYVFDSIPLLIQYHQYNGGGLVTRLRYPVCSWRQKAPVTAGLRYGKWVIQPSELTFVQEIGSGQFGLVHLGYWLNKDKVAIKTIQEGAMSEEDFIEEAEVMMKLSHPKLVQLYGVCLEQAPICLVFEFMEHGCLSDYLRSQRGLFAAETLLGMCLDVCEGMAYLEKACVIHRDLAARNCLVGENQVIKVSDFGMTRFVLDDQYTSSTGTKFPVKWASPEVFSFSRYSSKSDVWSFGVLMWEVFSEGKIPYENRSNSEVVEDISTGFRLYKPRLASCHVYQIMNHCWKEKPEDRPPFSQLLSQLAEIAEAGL
Description: (§1) Compounds 1, 3, 7, and 42 were formulated and administered at 90 mg/kg to mice by oral gavage (PO). Blood was collected at defined time points (after 1, 2, and 6 hours) after compounds administration to determine PK parameters. Concentration increased through 6 hours. Six hours later mice were sacrificed and splenocytes were isolated and used to prepare protein lysates. Total protein levels were determined in the lysates using the BCA assay according to standard methods. Equal amounts of protein were then analyzed by Western blot to determine the level of ITK expression in each sample. ITK band intensities were measured using Alpha View software and the percent of ITK remaining in each test animal was determined relative to the mean of ITK levels in vehicle control samples.
After 6 hours, splenocytes cells were harvested. ITK was evaluated by Western blotting.
Compounds 43, 4, 5, 10, 11, 12, 44, 14, 3, and 13 were administered to mice orally. After 6 hours, splenocytes cells were harvested. ITK was evaluated by Western blotting. Media was removed and cell pellets were lysed in 100 uL lysis buffer (RIPA buffer (Fisher, PI89901), cOmplete Mini EDTA-free protease inhibitor (Sigma 11836170001), Protease Inhibitor Cocktail (Sigma, P2714), Phosphatase Inhibitor Cocktail 2 and 3 (Sigma, P5726 and P0044), Benzonase (Sigma, E1014)). Cells were lysed overnight at −20° C. Following thaw, cells were centrifuged for 10 min at 13000 rpm, then transferred to new tube. Protein levels were determined by BCA Assay performed according to manufacturer's protocol (EMID Millipore, cat. no. 71285-3). Samples were combined with (4×) LDS Sample Buffer and (10×) Reducing Agent and H2O to equally load 20 ug protein per lane of a 26-well NuPAGE 4-12% Bis-Tris protein gel (1.0 mm, Thermo cat. no. NP0326). Samples were separated by running gels at constant 150 V in NuPAGE MES SDS Running Buffer. Following electrophoresis, proteins were transferred to nitrocellulose membranes using an iBlot Gel Transfer Device and iBlot Gel Transfer Stacks (Thermo cat. no. IB21001 and IB301001) and transfer method P3 (20V for 7 min). Membranes were blocked for 1 hr in 5% milk solution (TBS (0.2% Tween-20)). Following blocking, membranes were incubated with primary antibody (1:1000 CST ITK (2F12) #2380) overnight at 4° C. with gentle shaking. Blots were washed 2× in TBS (0.2% Tween-20), 30 min per wash. Following washes, blots were incubated in secondary HRP-conjugated antibody (Promega anti-Mouse IgG (H+L) HRP cat. no. W4021), 1:5000 in 5% milk solution (TBS (0.2% Tween-20)), for 1 hr at room temperature with gentle shaking. Blots were washed 2× in TBS (0.2% Tween-20), 30 min per wash. Blots were incubated with 1:1 mix of ECL reagents 1 & 2 (Amersham ECL Western Blotting Detection Reagent, cat. no. RPN2106) for 2 min at room temperature. Bands were visualized using a Protein Simple imager. Blots were then re-probed with a combination of anti-actin antibody (Sigma Monoclonal Mouse Anti-3-Actin (clone AC-15), cat. no. A5441) and secondary H1RP-conjugated antibody (Promega anti-Mouse IgG (H+L) HRP, cat. no. W4021) and similar steps were taken for incubation, wash, detection and visualization steps as above. The data was analyzed using Alpha View software. The densitometric reading for each sample band was normalized to that of the corresponding actin band per lane. Approximate % ITK remaining per sample was calculated as follows: […]
Once % ITK remaining has been calculated for each sample, groups are averaged together to show an means % ITK normalized to actin and relative to control.
Compounds 16, 17, and 18 were administered to mice orally. After 6 hours or 24 hours, splenocytes cells were harvested. ITK was evaluated by Western blotting. Plasma concentrations were determined by LC/MS/MS. Plasma samples were protein precipitated by addition of 100 μl of acetonitrile containing 50 ng/ml of internal standard. The resulting mixture was vortexed and centrifuged at 4000 RPM for 5 minutes. […]

[2] = Mouse PK analysis (blood/plasma concentration after oral administration); assay type: in vivo; conditions: mouse; mice, oral, plasma
Description: as §1
Compounds 16, 17, and 18 were administered to mice orally. After 6 hours or 24 hours, splenocytes cells were harvested. ITK was evaluated by Western blotting. Plasma concentrations were determined by LC/MS/MS. Plasma samples were protein precipitated by addition of 100 μl of acetonitrile containing 50 ng/ml of internal standard. The resulting mixture was vortexed and centrifuged at 4000 RPM for 5 minutes. An aliquot of the resultant supernatant (75 μl) was added to 75 μl of 0.1% formic acid in water to constitute the final sample for injection. Samples were injected on a Shimadzu Exion LC Binary Gradient AD Pump HLPC system connected to a Sciex QTRAP 6500+mass spectrometer. Five μl of sample was injected onto a Waters Acquity UPLC BEH C18 column 130A (2.1×30 mm, […]) at 40° C. utilizing a flow rate of 700 μl/minute. Mobile Phase A was 0.1% formic acid in water and mobile phase B was 0.1% formic acid in acetonitrile. A linear gradient of 15-95% B over 1.0 minute was used. The mass spectrometer was operated in positive ion electrospray mode with multiple reaction monitoring for maximum sensitivity. Sciex Analyst software (version 1.6.3) was used for LC/MS/MS instrument control and acquisition. Compound concentration was determined against a standard curve of internal standard versus compound peak area ratio. Noncompartmental PK parameters were determined using […] software (version 8.2.0.4383) from Certara. Plasma concentrations from the LC/MS/MS analyses, dose, route of administration, and desired units were utilized for PK parameter calculations. […] FIG. 4C provides the concentration over time of compound 17 following in vivo oral administration in the 6 hour and 24 hour assays.
Cmax, Tmax and AUClast were all calculated using a WinNonLin Phoenix 64 v 8.2.0.4383. Using non-compartmental analysis, Tmax, Cmax and AUClast were determined as follows: • Tmax—Time of maximum observed concentration. • Cmax—Maximum observed concentration, occurring at time Tmax, as defined above. • AUClast—Area under the curve from the time of dosing to the time of the last measurable (positive) concentration (Tlast).

ITK [3] = target: T2, ITK (Homo sapiens, UniProt Q08881); assay: ITK degradation HiBiT assay; assay type: cell-based; parameters: expressed in transfected cells; host or cells: Molt4 (ATCC CRL-1552), monoclonal clone 1C10, engineered to carry the HiBiT tag; conditions: 4 hrs; for Dmax: MOLT-4, C-terminal HiBiT-tagged Molt4 cells
T2 sequence (Q08881 1-620): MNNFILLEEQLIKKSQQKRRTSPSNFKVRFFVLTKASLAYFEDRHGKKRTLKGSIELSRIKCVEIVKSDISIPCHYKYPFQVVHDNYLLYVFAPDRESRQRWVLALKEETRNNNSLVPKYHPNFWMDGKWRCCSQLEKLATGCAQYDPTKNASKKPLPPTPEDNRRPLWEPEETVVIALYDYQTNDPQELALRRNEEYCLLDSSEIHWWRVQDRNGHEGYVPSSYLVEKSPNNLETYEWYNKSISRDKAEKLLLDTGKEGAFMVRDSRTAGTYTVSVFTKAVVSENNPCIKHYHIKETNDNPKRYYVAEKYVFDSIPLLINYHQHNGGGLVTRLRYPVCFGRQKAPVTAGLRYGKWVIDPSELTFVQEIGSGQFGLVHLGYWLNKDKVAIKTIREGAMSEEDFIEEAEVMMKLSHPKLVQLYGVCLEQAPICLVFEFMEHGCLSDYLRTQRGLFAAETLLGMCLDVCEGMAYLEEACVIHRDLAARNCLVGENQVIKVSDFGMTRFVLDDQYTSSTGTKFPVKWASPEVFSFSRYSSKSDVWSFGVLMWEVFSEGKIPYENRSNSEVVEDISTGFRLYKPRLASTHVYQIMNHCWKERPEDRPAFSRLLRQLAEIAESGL
How it was run: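 C-terminal HiBiT-tagged Molt4 cells (clone 1C10) treated 4 h at 32° C with an 11-point, 5-fold compound dilution series (0.5% DMSO). HiBiT lytic detection with LgBiT then luminescence read; % ITK remaining versus concentration fit by four-parameter variable-slope model to give DC50 and Dmax.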

ITK (%) 90 mpk PO, 6 h (ITK [1]) [%] | AUC(0-t) [2] [µM·h] | Cmax [2] [nM] | Tmax [2] [h] | Dmax (ITK [3]) [%] | DC50 (ITK [3]; C-terminal HiBiT-tagged Molt4 cells) [nM] | SMILES
66 | – | – | – | – | – | CN(C(=O)CC1CCN(c2ccc(C3CCC(=O)NC3=O)cn2)CC1)c1ccc2cc(-c3n[nH]c4c3C[C@@H]3C(F)(F)[C@]3(C)C4)[nH]c2c1 (stereo partly shown) [Compound 20]
– | 0.08 | 23 | 1.5 | 83 | – | CC1(C)CCc2c(-c3cc4ccc(C(=O)N5CCC(CN6CCC7(C6)CN(c6ccc(C8CCC(=O)NC8=O)cn6)C7)CC5)cc4[nH]3)n[nH]c2C1 (stereo not shown) [Compound 61, 3-(6-(6-((1-(2-(6,6-dimethyl-4,5,6,7-tetrahydro-1H-indazol-3-yl)-1H-indole-6-carbonyl)piperidin-4-yl)methyl)-2,6-diazaspiro[3.4]octan-2-yl)pyridin-3-yl)piperidine-2,6-dione]
– | 2.34 | 720 | 6 | – | – | C[C@@]12Cc3[nH]nc(C(=O)Nc4cnn([C@H](c5ccccc5)C5CN(C(=O)C6CN(c7ccc(C8CCC(=O)NC8=O)cn7)C6)C5)c4)c3C[C@@H]1C2(F)F (stereo partly drawn) [Compound 51, (4aS,5aR)-N-(1-((1S)-(1-(1-(5-(2,6-dioxopiperidin-3-yl)pyridin-2-yl)azetidine-3-carbonyl)azetidin-3-yl)(phenyl)methyl)-1H-pyrazol-4-yl)-5,5-difluoro-5a-methyl-1,4,4a,5,5a,6-hexahydrocyclopropa[f]indazole-3-carboxamide]
– | 0.18 | 61 | 1.5 | 69 | 13.4 | CC1(C)CCc2c(-c3cc4ccc(C(=O)N5CCC(C6CCN(c7ccc(C8CCC(=O)NC8=O)cn7)CC6)CC5)cc4[nH]3)n[nH]c2C1 (stereo not shown) [Compound 58, 3-(6-(1′-(2-(6,6-dimethyl-4,5,6,7-tetrahydro-1H-indazol-3-yl)-1H-indole-6-carbonyl)-[4,4′-bipiperidin]-1-yl)pyridin-3-yl)piperidine-2,6-dione]
